{"source": "patent US20030068385A1", "about": "“Accelerated action fatty acid (AAFA) promotes health of normal tissues and minimizes the toxic side effects of chemotherapy” (priority 2001, published 2003)", "key": {"[1]": {"experiment": "Fecal water content (Example 1)", "format": "in vivo", "conditions": "Swiss mice treated with CPT-11 60 mg/kg IV; compared with mice not treated with CPT-11; not significant by ANOVA", "protocol": "(§1) Mice were killed 24 hours after the last CPT-11 treatment. At necropsy, mice were weighed, anesthesized and blood was drawn via cardiac puncture. Peripheral blood was placed in an EDTA-containing tube and sent to Laboratory Animal Resources for complete blood counts. The liver, spleen, testes and kidneys were removed, weighed, then part of each organ was fixed in Omnifix® and a part was quick frozen in liquid nitrogen. The brain was removed and frozen in liquid nitrogen. The colon was resected, split open longitudinally and placed serosal side down on a card. Feces were removed from the colon, placed in a tared pan and weighed, then placed in a 100° C. vacuum oven for drying to constant weight. The colon and a section of duodenum were fixed in Omnifix®. The fixed colon and duodenum were oriented in cassettes then processed to paraffin blocks. Paraffin sections were cut 4 μm thick, histological slides of the colon and duodenum were prepared and stained with H & E or periodic acid-Schiff stain.\nThe initial wet weight and final constant weight of the dried feces was used to calculate the % of water in the feces of each mouse as an assay of intestinal function. […] Thus, the treatment helped return the values closer to control (no CPT-11 treatment) group values."}, "duodenum crypts": {"tested_on": "duodenum crypts", "experiment": "Apoptotic figures in the duodenum (Example 1)", "format": "in vivo", "conditions": "Swiss mice, CPT-11 60 mg/kg IV; two way ANOVA", "protocol": "as §1\nThe number of apoptotic cells found in 10 complete, midaxially sectioned duodenum crypts was counted as an indication of intestinal damage. […] Thus, the treatment helped return the values closer to control (no CPT-11 treatment) group values."}, "[2]": {"experiment": "Blood counts: WBC, RBC, hematocrit (Example 1)", "format": "in vivo", "conditions": "Swiss mice treated with CPT-11; AAFA prior to and during CPT-11", "protocol": "as §1"}, "[3]": {"conditions": "cited from earlier work"}, "[4]": {"experiment": "Body weight gain during CPT-11 treatment on AAFA diets (Example 1)", "format": "in vivo", "conditions": "male Swiss mice; 0-3% AAFA diets; CPT-11 60 mg/kg IV once each four days for 2 weeks", "protocol": "40 male Swiss mice, 6 weeks old, were obtained and earmarked for unique identification. Mice were housed 5/cage in Laboratory Animal Resources facilities. After 24 hours acclimation, mice were weighed and the food was changed to one of four defined diets. The AIN-76 based, 10% total fat diets contained: 0% AAFA+10% corn oil, 1% AAFA+9% corn oil, 2% AAFA+8% corn oil or 3% AAFA+7% corn oil. Two cages (10 mice) were designated to consume each diet. All mice were weighed three times weekly throughout the experiment.\nMice consumed the diet for 2 weeks then treatment with CPT-11 commenced for half of the mice (1 cage of 5 mice) on each diet. CPT-11 was administered at 60 mg/kg body weight, IV in a lateral tail vein, once each four days for 2 weeks. Control mice received an equivalent volume of the CPT-11 vehicle."}, "[5]": {"experiment": "Liver weight as percent of body weight (Example 1)", "format": "in vivo", "conditions": "Swiss mice treated with CPT-11; compared with mice not treated with CPT-11", "protocol": "as §1\nThe weight of the liver was expressed as a percent of body weight. […] Thus, the treatment returned the values to control (no CPT-11 treatment) group values."}, "Coat quality (Example 1)": {"experiment": "Coat quality (Example 1)", "format": "in vivo", "conditions": "Swiss mice treated with CPT-11; compared with normal control group", "excerpt": "The group of mice that consumed the ‘normal’ diet containing 10% corn oil and 0% AAFA that were not treated with CPT-11 (normal control group) was compared to the groups of mice treated with CPT-11 that consumed each diet. […] Thus, the treatment helped return the animal grooming behavior closer to the normal untreated control group without CPT-11. This generally reflects that the animals were “feeling better”."}, "[6]": {"tested_on": "peripheral blood erythrocytes", "experiment": "Micronuclei and polychromataphilic erythrocytes in peripheral blood", "format": "in vivo", "conditions": "Swiss mice treated with CPT-11; compared with mice that did not receive CPT-11", "protocol": "After completion of blood counts, a thin smear of peripheral blood was made on a microscope slide, the smear was air-dried and was then stained for 5 minutes with 0.01 mg/ml acridine orange in phosphate buffered saline (pH 7.0). Micronuclei and polychomataphilic erythrocytes (PCE) were identified on the acridine orange stained smears of peripheral blood. Using fluorescent microscopy and a 100X oil objective, the mature erythrocytes, lacking either DNA or RNA are green, the RNA containing PCE are reddish and the DNA containing micronuclei are bright yellow. Fields containing a single layer of erythrocytes were identified. At least 8 standard fields (300, 400 or 500 cells) were identified on each slide and the number or micronuclei or PCEs were counted and recorded."}, "[7]": {"tested_on": "A549 human lung cancer xenografts", "experiment": "Growth rate of A549 xenografts in nude mice (Example 3)", "format": "in vivo", "protocol": "A549 human lung cancer cells (American Type Culture Collection, Rockville, Md.) were cultured for injection in nude mice. The culture medium was an enriched L15:SMEM base media supplemented with other factors as described previously.\nTwenty five male nude mice were allowed to acclimate for one week then were inoculated with tumor cells. The mice were housed under aseptic conditions (positive air pressure in a designated nude mouse room, cages, bedding, water and food were sterilized, cages had microisolator tops) in a temperature (24° C.) and light controlled (12 h light per day) room. All mouse handling was carried out under a laminar flow hood. Our Institutional Animal Care and Use Committee approved all animal use and handling before commencing the experiment. The animal care facilities are accredited by the American Association for the Accreditation of Laboratory Animal Care. Experimental Design-Cultured A549 cells were harvested, rinsed then suspended in serum-free L15:SMEM culture medium. Cells in suspension were counted using a hemocytometer and the cell count was adjusted to […]. The suspension was kept well mixed during the time of injection. […]\nTumor lengths and widths and body weights were measured three times weekly. […] Tumor sizes were calculated using the formula for the volume of a prolate spheroid, […]"}, "[8]": {"conditions": "patients or other mammals treated with CPT-11"}}, "note": "Counter-ions that a name gives are not always drawn.", "data": [{"compound": "CCc1c2c(nc3ccc(OC(=O)N4CCC(N5CCCCC5)CC4)cc13)-c1cc3c(c(=O)n1C2)COC(=O)[C@]3(O)CC", "note": "[CPT-11, irinotecan hydrochloride]", "values": [{"measurement": "mean fecal water content (% of water in the feces)", "setting": "[1]", "result": "higher"}, {"measurement": "number of apoptotic cells in 10 duodenum crypts", "setting": "duodenum crypts", "result": "significantly increased"}, {"measurement": "hematocrit", "setting": "[2]", "result": "significantly decreased"}, {"measurement": "red blood cell count", "setting": "[2]", "result": "significantly decreased"}, {"measurement": "white blood cell count", "setting": "[2]", "result": "significantly decreased"}, {"measurement": "patients with anemia", "setting": "[3]; [8]", "result": 67, "unit": "%"}, {"measurement": "patients with leukopenia", "setting": "[3]; [8]", "result": 91, "unit": "%"}, {"measurement": "patients reporting asthenia (tiredness or weakness)", "setting": "[3]; side effect of CPT-11 treatment", "result": "~90", "unit": "%"}, {"measurement": "weight gained during the time of CPT-11 treatment", "setting": "[4]", "result": "not significantly different"}, {"measurement": "liver weight as percent of body weight", "setting": "[5]", "result": "significantly larger"}, {"measurement": "coat quality", "setting": "Coat quality (Example 1)", "result": "scruffy"}, {"measurement": "micronuclei (MN) in the peripheral blood", "setting": "[6]", "result": "significantly higher"}, {"measurement": "polychromataphilic erythrocytes (PCE) in the peripheral blood", "setting": "[6]", "result": "significantly higher"}]}, {"compound": "ferric citrate [iron]", "values": [{"measurement": "effect of supplemental iron on A549 tumor growth", "setting": "[7]; mice fed corn oil, supplemental iron and DOX", "result": "counteracted the growth inhibitory effect"}]}, {"compound": "COc1cccc2c1C(=O)c1c(O)c3c(c(O)c1C2=O)C[C@@](O)(C(=O)CO)C[C@@H]3O[C@H]1C[C@H](N)[C@H](O)[C@H](C)O1", "note": "[DOX, doxorubicin]", "values": [{"measurement": "growth of A549 tumors", "setting": "[7]; mice consuming corn oil, treated with DOX", "result": "halted the growth"}]}]}
